pIC50: −log10 of the molar value.
Experiments:
[1] = target: ERK2 (Homo sapiens (Human), UniProt P28482); experiment: Active ERK1 and ERK2 Kinase Assay (Mobility Shift Assay); type: biochemical; conditions: activated ERK2, Mobility Shift Assay
Procedure: Activated ERK1 and ERK2 activity was determined in a Mobility Shift Assay (MSA) format as follows: Compound and kinase solution were prepared with assay buffer (20 mM HEPES, 0.01% Triton X-100, 2 mM DTT, pH7.5) and mixed and incubated in for 30 mins at rt. ERK1 & ERK2 were then activated by the addition of F1-Substrate, ATP and metal solution and incubated for 1 h at rt. After 1 h, the reaction was terminated by the addition of […] of Termination Buffer (QuickScout Screening Assist MSA; Carna Biosciences) to the well. The reaction mixture was applied to LabChip™ system (PerkinElmer), and the product and substrate peptide peaks were separated, analyzed and quantitated. The kinase reaction is evaluated by the product ratio calculated from peak heights of product (P) and substrate(S) peptides (P/(P+S)).

[2] = test system: A375 (melanoma) cells; experiment: Proliferation Assay (CellTiter-Glo); type: cell-based; conditions: 3 days incubation, CellTiter-Glo luminescence
Procedure: A375 (melanoma), Colo-205 (colon cancer), Miapaca (pancreatic), HPAFII (pancreatic), sNF02.0 (neurofibromatosis type 1), sNF96.2 (neurofibromatosis type 1) and 8505 (Thyroid) cells were grown and maintained in RPMI-1640 medium containing 100 U/mL penicillin-streptomycin and 10% fetal bovine serum. Cells were in growth medium in 96-well opaque-walled clear bottom plates and incubated in the CO2 incubator overnight before treatment. Cells were treated with compounds diluted in DMSO and a 10 point 3-fold serial dilutions were done. Plates were placed in 37° C., 5% CO2 to incubate for 3 days. Before they were developed by adding 100 μL of CellTiter-Glo reagent (Promega) to the assay plate, plates were shaken briefly for 2 mins and allowed to incubate at room temperature for 10 mins. The bottom of the plates was pasted with white back seal and luminescence was recorded with Flexstation3 with setting of luminescence, integration time 500 ms.
Compounds of Formula (I), (II) and (III) are active in this assay as noted in Table 2.

Chain of ERK2 (P28482 whole entry): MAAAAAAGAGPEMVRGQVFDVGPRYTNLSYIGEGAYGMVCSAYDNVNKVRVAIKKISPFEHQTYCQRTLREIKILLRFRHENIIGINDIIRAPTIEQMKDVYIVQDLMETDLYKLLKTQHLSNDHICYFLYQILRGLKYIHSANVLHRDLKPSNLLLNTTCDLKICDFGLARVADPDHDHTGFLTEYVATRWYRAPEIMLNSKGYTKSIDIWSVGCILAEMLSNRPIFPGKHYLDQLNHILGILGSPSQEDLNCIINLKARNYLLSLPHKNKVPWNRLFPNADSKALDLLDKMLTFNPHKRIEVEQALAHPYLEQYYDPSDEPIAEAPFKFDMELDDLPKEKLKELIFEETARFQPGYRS

| SMILES | pIC50 [1] | pIC50 [2] | pIC50 ([2]; Homo sapiens, A-375, 72 h) |
| --- | --- | --- | --- |
| Cn1nc(-c2ccc(C3=CCN(C(=O)CN4CC[C@]5(CCN(c6ccc7[nH]nc(-c8ccc(C#N)c(C(F)(F)F)c8)c7c6)C5=O)C4)CC3)cc2)oc1=O [Example 15] | ≥ 7.30 | 6.00 to 6.30 | – |
| CC(C)Oc1ccc(-c2n[nH]c3ccc(N4CC[C@]5(CCN(CC(=O)N6CC=C(c7ccc(-c8ncn(C)n8)s7)CC6)C5)C4=O)nc23)cn1 [Example 65] | ≥ 7.30 | ≥ 6.30 | – |
| COc1ccc(-c2n[nH]c3ccc(N4CC[C@]5(CCN(CC(=O)N6CC=C(c7ccc(-c8ncn(C)n8)cc7)CC6)C5)C4=O)nc23)cn1 [Example 21] | ≥ 7.30 | ≥ 6.30 | – |
| COc1ccc(-c2n[nH]c3ccc(N4CC[C@]5(CCN(CC(=O)N6CC=C(c7ccc(-c8nn(C)c(=O)o8)cc7)CC6)C5)C4=O)cc23)cn1 [Example 19] | ≥ 7.30 | ≥ 6.30 | – |
| C[C@@H]1CN(c2n[nH]c3ccc(N4CC[C@]5(CCN(CC(=O)N6CC=C(c7ccc(-c8ncn(C)n8)cc7)CC6)C5)C4=O)nc23)C[C@H](C)O1 [Example 48] | ≥ 7.30 | 6.00 to 6.30 | – |
| Cn1cnc(-c2cnc(C3=CCN(C(=O)CN4CC[C@]5(CCN(c6ccc7[nH]nc(-c8ccc(F)cn8)c7c6)C5=O)C4)CC3)s2)n1 [Example 54] | ≥ 7.30 | ≥ 6.30 | – |
| CC(C)Oc1ccc(-c2n[nH]c3ccc(N4CC[C@]5(CCN(CC(=O)N6CCN(c7ccc(-c8ncn(C)n8)cc7)CC6)C5)C4=O)nc23)cn1 [Example 82] | ≥ 7.30 | ≥ 6.30 | – |
| Cn1nc(-c2ccc(C3=CCN(C(=O)CN4CCC5(CCN(c6ccc7[nH]nc(C8CCOCC8)c7n6)C5=O)C4)CC3)cc2)oc1=O (centres unmarked) [Example 23] | ≥ 7.30 | ≥ 6.30 | – |
| COc1ccc(-c2n[nH]c3ccc(N4CC[C@]5(CCN(CC(=O)N6CC=C(c7ccc(-c8ncn(C)n8)cc7)CC6)C5)C4=O)nc23)cc1OC [Example 92] | ≥ 7.30 | ≥ 6.30 | – |

Second part, the molecule after the results:

| pIC50 [1] | pIC50 [2] | pIC50 ([2]; Homo sapiens, A-375, 72 h) | SMILES |
| --- | --- | --- | --- |
| ≥ 7.30 | 6.00 to 6.30 | – | COc1cnc(-c2n[nH]c3ccc(N4CC[C@]5(CCN(CC(=O)N6CCC(c7ccc(-c8ncn(C)n8)cc7)CC6)C5)C4=O)cc23)c(F)c1 [Example 74] |
| ≥ 7.30 | 6.00 to 6.30 | – | Cn1cnc(-c2ccc(C3=CCN(C(=O)CN4CC[C@]5(CCN(c6ccc7[nH]nc(-c8ccc9c(c8)OC(C)(C)O9)c7n6)C5=O)C4)CC3)cc2)n1 [Example 62] |
| ≥ 7.30 | ≥ 6.30 | – | CC(C)Sc1ccc(-c2n[nH]c3ccc(N4CC[C@]5(CCN(CC(=O)N6CC=C(c7ccc(-c8ncn(C)n8)cc7)CC6)C5)C4=O)nc23)cn1 [Example 76] |
| ≥ 7.30 | 6.00 to 6.30 | – | Cn1cnc(-c2ccc(C3=CCN(C(=O)CN4CC[C@]5(CCN(c6ccc7[nH]nc(-c8ccc(Cl)cc8F)c7n6)C5=O)C4)CC3)cc2)n1 [Example 69] |
| ≥ 7.30 | ≥ 6.30 | – | Cn1cnc(-c2ccc(C3=CCN(C(=O)CN4CC[C@]5(CCN(c6ccc7[nH]nc(-c8ccc(OC9CCC9)nc8)c7n6)C5=O)C4)CC3)cc2)n1 [Example 77] |
| ≥ 7.30 | – | ≥ 6.30 | Cn1cnc(-c2ccc(C3=CCN(C(=O)CN4CC[C@]5(CCN(c6ccc7[nH]nc(-c8ccc(C#N)cn8)c7c6)C5=O)C4)CC3)cc2)n1 [Example 29] |
| ≥ 7.30 | – | ≥ 6.30 | Cn1cnc(-c2cnc(C3=CCN(C(=O)CN4CC[C@]5(CCN(c6ccc7[nH]nc(C8CCOCC8)c7n6)C5=O)C4)CC3)s2)n1 [Example 34] |
| ≥ 7.30 | ≥ 6.30 | – | Cn1cnc(-c2ccc(N3CCN(C(=O)CN4CC[C@]5(CCN(c6ccc7[nH]nc(-c8ccc(F)cn8)c7c6)C5=O)C4)CC3)nc2)n1 [Example 57] |
| ≥ 7.30 | – | ≥ 6.30 | CNC(=O)c1cc(-c2n[nH]c3ccc(N4CC[C@]5(CCN(CC(=O)N6CC=C(c7ccc(-c8ncn(C)n8)cc7)CC6)C5)C4=O)cc23)ccn1 [Example 5] |
| ≥ 7.30 | – | ≥ 6.30 | Cn1cnc(-c2ccc(C3=CCN(C(=O)CN4CC[C@]5(CCN(c6ccc7[nH]nc(C8CCOC8)c7c6)C5=O)C4)CC3)cc2)n1 (stereo partly drawn) [Example 13, (5S)-7-(2-(4-(4-(1-Methyl-1H-1,2,4-triazol-3-yl)phenyl)-5,6-dihydropyridin-1(2H)-yl)-2-oxoethyl)-2-(3-(tetrahydrofuran-3-yl)-1H-indazol-5-yl)-2,7-diazaspiro[4.4]nonan-1-one] |

From patent publication US10934304B2, “Spirocyclic compounds” (Recurium IP Holdings, LLC, priority 2016, dated 2021)
